Common to all, as to type: cell-based
The test system of one assay is HbF. Briefly: HbF HiBiT induction assay in HUDEP-2 cells. As to conditions: HUDEP-2 cells with HiBiT tag in HBG1/2, 72 hours of treatment; area under the dose response curve, higher AUC = greater HbF induction. A digest of the protocol: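 HUDEP-2 cells carrying a HiBiT tag on HBG1/2 were exposed to compounds for 72 h at 37° C, 5% CO2, in IMDM with EPO, hSCF, DOX, transferrin, insulin, heparin and 5% human plasma. HiBiT luminescence was read after lytic detection; HbF induction is expressed as dose-response AUC, alongside EC50 and Ymax.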

The target in another assay is T1, ZBTB7A (Homo sapiens, UniProt O95365+Q96SW2).
T1 construct: HUDEP-2 cells engineered to express a HiBiT tag in either the WIZ (Widely interspaced zinc finger) or ZBTB7A
T1 sequence (O95365 whole entry): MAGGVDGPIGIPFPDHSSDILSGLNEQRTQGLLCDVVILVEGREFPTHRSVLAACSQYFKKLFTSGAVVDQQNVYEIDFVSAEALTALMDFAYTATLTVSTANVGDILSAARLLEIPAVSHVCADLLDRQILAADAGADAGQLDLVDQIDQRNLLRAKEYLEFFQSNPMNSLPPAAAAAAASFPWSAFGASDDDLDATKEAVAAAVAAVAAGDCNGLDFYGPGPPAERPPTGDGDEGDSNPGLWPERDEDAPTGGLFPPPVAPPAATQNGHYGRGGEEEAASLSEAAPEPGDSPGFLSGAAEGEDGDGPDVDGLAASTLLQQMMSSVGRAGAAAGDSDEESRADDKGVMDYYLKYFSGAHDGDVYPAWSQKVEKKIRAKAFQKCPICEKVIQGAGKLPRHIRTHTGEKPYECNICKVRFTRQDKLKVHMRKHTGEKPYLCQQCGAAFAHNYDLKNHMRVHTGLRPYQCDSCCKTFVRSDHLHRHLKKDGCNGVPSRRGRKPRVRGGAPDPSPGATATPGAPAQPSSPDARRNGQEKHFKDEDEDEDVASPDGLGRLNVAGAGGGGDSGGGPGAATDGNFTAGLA
T1 sequence (Q96SW2 whole entry): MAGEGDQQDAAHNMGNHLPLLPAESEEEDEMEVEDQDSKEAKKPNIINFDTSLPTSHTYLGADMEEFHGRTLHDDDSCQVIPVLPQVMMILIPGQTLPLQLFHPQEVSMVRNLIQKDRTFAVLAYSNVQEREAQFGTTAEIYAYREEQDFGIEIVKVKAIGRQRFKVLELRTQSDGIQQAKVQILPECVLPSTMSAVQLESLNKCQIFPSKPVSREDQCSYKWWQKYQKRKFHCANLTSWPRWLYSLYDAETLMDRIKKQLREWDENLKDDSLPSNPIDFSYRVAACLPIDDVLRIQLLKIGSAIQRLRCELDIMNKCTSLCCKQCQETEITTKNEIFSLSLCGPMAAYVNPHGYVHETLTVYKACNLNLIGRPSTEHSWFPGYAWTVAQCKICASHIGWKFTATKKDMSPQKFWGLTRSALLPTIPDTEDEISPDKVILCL
T1 sequence (Q16531 whole entry partner): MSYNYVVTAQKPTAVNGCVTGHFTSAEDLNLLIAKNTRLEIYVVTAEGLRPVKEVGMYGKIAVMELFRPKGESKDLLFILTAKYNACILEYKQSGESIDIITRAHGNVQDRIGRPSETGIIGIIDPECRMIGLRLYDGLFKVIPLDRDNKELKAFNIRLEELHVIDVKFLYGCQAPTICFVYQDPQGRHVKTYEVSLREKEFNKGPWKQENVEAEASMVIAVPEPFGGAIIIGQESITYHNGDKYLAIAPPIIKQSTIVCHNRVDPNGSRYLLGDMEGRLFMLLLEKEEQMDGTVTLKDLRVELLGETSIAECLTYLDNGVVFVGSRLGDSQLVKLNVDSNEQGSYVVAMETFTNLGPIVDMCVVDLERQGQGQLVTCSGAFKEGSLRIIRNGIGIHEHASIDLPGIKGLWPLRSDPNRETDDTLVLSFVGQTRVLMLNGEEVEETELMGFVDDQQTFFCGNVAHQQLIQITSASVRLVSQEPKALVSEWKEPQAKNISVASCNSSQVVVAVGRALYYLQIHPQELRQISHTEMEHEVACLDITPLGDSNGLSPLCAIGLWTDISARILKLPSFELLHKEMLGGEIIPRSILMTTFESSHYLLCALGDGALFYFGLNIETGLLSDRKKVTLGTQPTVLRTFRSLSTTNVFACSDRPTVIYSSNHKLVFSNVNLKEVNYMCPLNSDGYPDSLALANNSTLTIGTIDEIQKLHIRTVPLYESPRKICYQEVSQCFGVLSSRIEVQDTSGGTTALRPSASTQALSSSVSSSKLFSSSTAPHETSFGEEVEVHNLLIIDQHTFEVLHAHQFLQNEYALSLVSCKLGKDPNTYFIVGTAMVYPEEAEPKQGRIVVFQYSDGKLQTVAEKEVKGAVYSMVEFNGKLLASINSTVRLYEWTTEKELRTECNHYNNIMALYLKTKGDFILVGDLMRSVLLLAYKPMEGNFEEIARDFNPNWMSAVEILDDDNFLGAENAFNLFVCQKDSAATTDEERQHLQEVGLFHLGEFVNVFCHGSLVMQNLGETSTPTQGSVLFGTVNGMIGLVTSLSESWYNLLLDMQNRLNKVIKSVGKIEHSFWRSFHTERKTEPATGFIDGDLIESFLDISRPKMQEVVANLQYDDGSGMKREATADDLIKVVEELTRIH
Nature of the assay: HUDEP-2 ZBTB7A HiBiT degradation assay. The note with it: HiBiT-tagged ZBTB7A degradation in HUDEP-2 cells, 24 hours of treatment; read-out: ZBTB7A EC50. An outline of the steps: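 HiBiT-tagged HUDEP-2 cells were pre-cultured 48 h in IMDM with EPO, SCF, doxycycline and 5% human plasma, then exposed to compounds at 1.0×10^6 cells/ml for 24 h at 37 °C. Nano-Glo HiBiT lytic luminescence, normalised to DMSO over 10 concentrations, gave EC50 and Y-min.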

The target of another assay is T2, WIZ (Homo sapiens, UniProt O95785+Q96SW2).
T2 construct: HUDEP-2 cells engineered to express a HiBiT tag in either the WIZ (Widely interspaced zinc finger) or ZBTB7A
T2 sequence (O95785 whole entry): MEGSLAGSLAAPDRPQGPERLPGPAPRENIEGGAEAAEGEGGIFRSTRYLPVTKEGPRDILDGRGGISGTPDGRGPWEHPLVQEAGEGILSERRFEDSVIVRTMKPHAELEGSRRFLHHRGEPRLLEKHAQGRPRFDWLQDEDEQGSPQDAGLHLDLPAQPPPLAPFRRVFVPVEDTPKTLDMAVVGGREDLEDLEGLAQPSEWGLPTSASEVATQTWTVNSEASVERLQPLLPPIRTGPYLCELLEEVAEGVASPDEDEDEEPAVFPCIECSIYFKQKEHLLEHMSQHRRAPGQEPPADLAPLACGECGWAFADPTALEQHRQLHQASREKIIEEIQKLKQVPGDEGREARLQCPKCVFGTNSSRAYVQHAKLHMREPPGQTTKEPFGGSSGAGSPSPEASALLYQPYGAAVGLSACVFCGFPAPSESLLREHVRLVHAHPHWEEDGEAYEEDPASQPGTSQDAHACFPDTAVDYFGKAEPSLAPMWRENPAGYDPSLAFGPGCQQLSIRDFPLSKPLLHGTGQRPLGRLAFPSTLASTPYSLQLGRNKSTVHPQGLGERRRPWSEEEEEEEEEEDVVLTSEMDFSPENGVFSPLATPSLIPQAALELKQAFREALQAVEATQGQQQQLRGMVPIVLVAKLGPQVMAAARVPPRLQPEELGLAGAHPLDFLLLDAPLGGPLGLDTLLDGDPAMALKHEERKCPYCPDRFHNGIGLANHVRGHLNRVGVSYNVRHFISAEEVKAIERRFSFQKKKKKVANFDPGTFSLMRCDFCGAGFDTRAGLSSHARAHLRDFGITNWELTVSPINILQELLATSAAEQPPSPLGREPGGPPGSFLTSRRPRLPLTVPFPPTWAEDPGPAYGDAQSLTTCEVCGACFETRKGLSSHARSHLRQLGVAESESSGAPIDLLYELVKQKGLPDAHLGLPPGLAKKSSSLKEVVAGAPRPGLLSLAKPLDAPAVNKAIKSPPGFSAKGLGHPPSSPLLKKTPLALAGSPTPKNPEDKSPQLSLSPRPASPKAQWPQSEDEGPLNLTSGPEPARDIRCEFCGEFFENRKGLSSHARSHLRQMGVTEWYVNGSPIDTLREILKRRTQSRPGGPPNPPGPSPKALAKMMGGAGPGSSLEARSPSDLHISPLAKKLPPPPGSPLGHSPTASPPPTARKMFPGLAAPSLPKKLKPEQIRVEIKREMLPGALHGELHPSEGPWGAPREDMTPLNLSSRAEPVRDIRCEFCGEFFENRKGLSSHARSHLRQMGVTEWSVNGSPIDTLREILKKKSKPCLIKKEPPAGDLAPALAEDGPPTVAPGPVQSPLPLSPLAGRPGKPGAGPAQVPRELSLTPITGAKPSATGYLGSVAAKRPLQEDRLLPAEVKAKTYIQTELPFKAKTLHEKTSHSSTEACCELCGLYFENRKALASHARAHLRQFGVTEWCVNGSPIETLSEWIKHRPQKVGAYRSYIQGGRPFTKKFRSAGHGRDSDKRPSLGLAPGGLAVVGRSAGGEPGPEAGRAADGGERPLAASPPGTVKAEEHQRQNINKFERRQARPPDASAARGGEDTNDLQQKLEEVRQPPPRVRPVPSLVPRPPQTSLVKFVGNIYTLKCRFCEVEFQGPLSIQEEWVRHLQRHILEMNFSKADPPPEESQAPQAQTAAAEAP
T2 sequence (Q96SW2 whole entry): as the sequence (Q96SW2 whole entry) above
T2 sequence (Q16531 whole entry partner): as the sequence (Q16531 whole entry partner) above
Briefly: HUDEP-2 WIZ HiBiT degradation assay. As to conditions: HiBiT-tagged WIZ degradation in HUDEP-2 cells, 24 hours of treatment; read-out: WIZ EC50. An outline of the steps: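 HiBiT-tagged HUDEP-2 cells at 1.0×10^6 cells/ml in SFEM II with SCF, EPO, dexamethasone and doxycycline, treated 24 h at 37 °C with a 10-point series ([…]). Luminescence after HiBiT lytic detection, normalized to DMSO; EC50 and Y-min from fitted curves.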

Results on 4 molecules are retold here after patent US20250333407A1, “Compounds and Their Use for Treatment of Hemoglobinopathies” (Bristol-Myers Squibb Company, priority 2024, published 2025).

For the molecule `CN1C(=O)CCc2cc(C3CCN(C(=O)C4CC4)CC3)c(Nc3cccc4c3C(=O)N(C3CCC(=O)NC3=O)C4=O)cc21` (stereo not drawn) [Compound 93, 4-((6-(1-(cyclopropanecarbonyl)piperidin-4-yl)-1-methyl-2-oxo-1,2,3,4-tetrahydroquinolin-7-yl)amino)-2-(2,6-dioxopiperidin-3-yl)isoindoline-1,3-dione], the “HBF AUC” value in the assay with HbF is given as “++ (++ = 100 ≤ AUC < 150)”. In addition, the DC50 at ZBTB7A worked out at 15 nM; on WIZ, 4 nM.

Regarding `C=CN1C(=O)CCc2cc(-c3ccnc(C)c3)c(Nc3cccc4c3C(=O)N(C3CCC(=O)NC3=O)C4=O)cc21` (stereo not drawn) [Compound 94, 2-(2,6-dioxopiperidin-3-yl)-4-((6-(2-methylpyridin-4-yl)-2-oxo-1-vinyl-1,2,3,4-tetrahydroquinolin-7-yl)amino)isoindoline-1,3-dione], in the assay with HbF, the “HBF AUC” value was “+ (+ = 15 ≤ AUC < 100)”. Further, the DC50 at ZBTB7A came to 28 nM; on WIZ it was 17 nM.

Take `Cc1cc(-c2nc3c(cc2Nc2cccc4c2C(=O)N([C@H]2CCC(=O)NC2=O)C4=O)N(C)C(=O)CC3)ccn1` [Compound 95, (S)-2-(2,6-dioxopiperidin-3-yl)-4-((5-methyl-2-(2-methylpyridin-4-yl)-6-oxo-5,6,7,8-tetrahydro-1,5-naphthyridin-3-yl)amino)isoindoline-1,3-dione]: the “HBF AUC” value in the assay on HbF is listed as “+ (+ = 15 ≤ AUC < 100)”. Moreover, the results for the DC50 on ZBTB7A and at WIZ were 256 nM and 89 nM, respectively.

As to `Cc1cc(-c2cc3c(cc2Nc2cccc4c2C(=O)N(C2CCC(=O)NC2=O)C4=O)N(C)C(=O)CC3C)ccn1` (stereo not drawn) [Compound 96, 4-((1,4-dimethyl-6-(2-methylpyridin-4-yl)-2-oxo-1,2,3,4-tetrahydroquinolin-7-yl)amino)-2-(2,6-dioxopiperidin-3-yl)isoindoline-1,3-dione], in the assay on HbF, the “HBF AUC” value was “++ (++ = 100 ≤ AUC < 150)”. In addition, the figures for the DC50 on ZBTB7A and on WIZ were 13 nM and 11 nM, respectively.
